The first data set is described as follows: solvent given as SMILES. Conditions: in C1CCCCC1.
As for `CCCN1/C(=C\c2c(-c3ccc(N(C)C)cc3)c(=O)c2=O)C=Cc2ccccc21`, the emission maximum turned out to be 428 nm.

`Cc1ccc(C2=C3C=CC=[N+]3[B-](F)(F)n3cccc32)cc1` returned an emission maximum of 516 nm.

Molecule `Cc1ccc2nc3c(nc2c1)c(-c1ccccc1)nn3C` gave an emission maximum of 472 nm.

The molecule `COC(=O)C(Cc1ccc2oc(-c3ccc(N(c4ccccc4)c4ccccc4)cc3)nc2c1)NC(=O)OC(C)(C)C` (configuration not stated) had an emission maximum of 395.25 nm.

Staying with this data set, now noted: in C1CCOC1.
For the molecule `CC1(C)c2ccccc2-c2ccc(N(c3ccccc3)c3ccc4c(c3)C(C)(C)c3cc(-c5cc6ccccc6c6c5oc5ccccc56)ccc3-4)cc21`, the emission maximum was 469 nm.

For `CN(C)c1ccc(C2=Nc3sc4c(F)c(F)c(F)c(F)c4[n+]3[B-](F)(F)O2)cc1`, the emission maximum worked out at 492 nm.

As for `CC1(C)CC(=O)C2=C(C1)Oc1ccc3cc(O)ccc3c1C2c1ccccn1` (configuration not stated), the emission maximum turned out to be 374 nm.

For `CN(C)c1ccc2cc(C3=[O+][B-](F)(F)OC(c4ccccc4)=C3)ccc2c1`, the emission maximum was determined as 643 nm.

The molecule `Cc1ccc2nc3c(nc2c1)c(-c1ccccc1)nn3C` yielded an emission maximum of 500 nm.

Regarding `O=S1(=O)C2=C(c3ccc(-c4ccc(N(c5ccccc5)c5ccccc5)cc4)cc31)C1(C3=C(c4ccccc41)S(=O)(=O)c1cc(-c4ccc(N(c5ccccc5)c5ccccc5)cc4)ccc13)c1ccccc12`, the emission maximum is recorded as 599 nm.

For the molecule `COC(=O)C(Cc1ccc2oc(-c3ccc(N(c4ccccc4)c4ccccc4)cc3)nc2c1)NC(=O)OC(C)(C)C` (configuration not stated), the emission maximum is recorded as 447.04 nm.

The same data set, now with this note: in C1COCCO1.
Molecule `CC1(C)CC(=O)C2=C(C1)Oc1ccc3cc(O)ccc3c1C2c1ccccn1` (configuration not stated) registered an emission maximum of 377 nm.

`c1ccc(-c2cc(-c3ccccc3)cc(-c3ccccc3)c2)cc1` came in with an emission maximum of 354 nm.

`COc1ccc(/C=C/C(=O)c2ccccc2O)cc1OC`: the emission maximum amounted to 425 nm.

Molecule `COC(=O)C(Cc1ccc2oc(-c3ccc(N(c4ccccc4)c4ccccc4)cc3)nc2c1)NC(=O)OC(C)(C)C` (configuration not stated) returned an emission maximum of 436.75 nm.

Still in this data set, the particulars now being: in CC1CCCCC1.
In turn, `COC(=O)C(Cc1ccc2oc(-c3ccc(N(c4ccccc4)c4ccccc4)cc3)nc2c1)NC(=O)OC(C)(C)C` (configuration not stated) had an emission maximum of 395 nm.

Still in this data set, the particulars now being: in CC1COC(=O)O1.
On to `COC(=O)C(Cc1ccc2oc(-c3ccc(N(c4ccccc4)c4ccccc4)cc3)nc2c1)NC(=O)OC(C)(C)C` (configuration not stated), for which the emission maximum amounted to 474 nm.

The data set is the same for the next values; noted with them: in CC#N.
`COc1nc(Nc2cc3ccc4cccc5ccc(c2)c3c45)nc(OC)n1` yielded an emission maximum of 393 nm.

Regarding `CN(C)c1ccc(C2=Nc3sc4c(F)c(F)c(F)c(F)c4[n+]3[B-](F)(F)O2)cc1`, the emission maximum was 503 nm.

`CC1(C)CC(=O)C2=C(C1)Oc1ccc3cc(O)ccc3c1C2c1ccccn1` (configuration not stated) gave an emission maximum of 378 nm.

For `Cc1ccc(C2=C3C=CC=[N+]3[B-](F)(F)n3cccc32)cc1`, the emission maximum stood at 514.5 nm.

The molecule `C[C@]12SC(=O)C=C1c1nc(-c3ccc(O)cc3)[nH]c1C1=CC(=O)S[C@@]12C` returned an emission maximum of 536 nm.

For `CN(C)c1ccc2cc(C3=[O+][B-](F)(F)OC(c4ccccc4)=C3)ccc2c1`, the emission maximum was found to be 406 nm.

Take `Cc1ccc2nc3c(nc2c1)c(-c1ccccc1)nn3C`: the emission maximum is 516 nm.

`C/C(=N\Nc1ccc(C#N)cc1)c1ccccn1` registered an emission maximum of 463 nm.

Molecule `COc1ccc(/C=C/C(=O)c2ccccc2O)cc1OC` came in with an emission maximum of 436 nm.

For `O=S1(=O)C2=C(c3ccc(-c4ccc(N(c5ccccc5)c5ccccc5)cc4)cc31)C1(C3=C(c4ccccc41)S(=O)(=O)c1cc(-c4ccc(N(c5ccccc5)c5ccccc5)cc4)ccc13)c1ccccc12`, the emission maximum was determined as 665 nm.

`COC(=O)C(Cc1ccc2oc(-c3ccc(N(c4ccccc4)c4ccccc4)cc3)nc2c1)NC(=O)OC(C)(C)C` (configuration not stated) came in with an emission maximum of 465.75 nm.

The same data set, now with this note: in CC(C)=O.
As for `CN(C)c1ccc2cc(C3=[O+][B-](F)(F)OC(c4ccccc4)=C3)ccc2c1`, the emission maximum is 682 nm.

As for `COC(=O)C(Cc1ccc2oc(-c3ccc(N(c4ccccc4)c4ccccc4)cc3)nc2c1)NC(=O)OC(C)(C)C` (configuration not stated), the emission maximum was 456.17 nm.

The data set is the same for the next values; noted with them: in CC(C)O.
On to `COC(=O)C(Cc1ccc2oc(-c3ccc(N(c4ccccc4)c4ccccc4)cc3)nc2c1)NC(=O)OC(C)(C)C` (configuration not stated), for which the emission maximum is listed as 455.75 nm.

Still in this data set, the particulars now being: in CC(O)CO.
For `COC(=O)C(Cc1ccc2oc(-c3ccc(N(c4ccccc4)c4ccccc4)cc3)nc2c1)NC(=O)OC(C)(C)C` (configuration not stated), the emission maximum was determined as 482.75 nm.

Staying with this data set, now noted: in CCCCCC.
Regarding `CC(C)[Si](C#Cc1c2nsnc2c(C#C[Si](C(C)C)(C(C)C)C(C)C)c2nc3c(nc12)Cc1ccccc1-3)(C(C)C)C(C)C`, the emission maximum was found to be 551 nm.

`C/C(=N\Nc1ccc(C#N)cc1)c1ccccn1` came in with an emission maximum of 452 nm.

Consider `O=S1(=O)C2=C(c3ccc(-c4ccc(N(c5ccccc5)c5ccccc5)cc4)cc31)C1(C3=C(c4ccccc41)S(=O)(=O)c1cc(-c4ccc(N(c5ccccc5)c5ccccc5)cc4)ccc13)c1ccccc12`, for which the emission maximum is 485 nm.

For `COC(=O)C(Cc1ccc2oc(-c3ccc(N(c4ccccc4)c4ccccc4)cc3)nc2c1)NC(=O)OC(C)(C)C` (configuration not stated), the emission maximum turned out to be 392.75 nm.

The data set is the same for the next values; noted with them: in CCCCCCC.
Molecule `CC1(C)CC(=O)C2=C(C1)Oc1ccc3cc(O)ccc3c1C2c1ccccn1` (configuration not stated) came in with an emission maximum of 359 nm.

Still in this data set, the particulars now being: in CCCCCCCC
In turn, `COC(=O)C(Cc1ccc2oc(-c3ccc(N(c4ccccc4)c4ccccc4)cc3)nc2c1)NC(=O)OC(C)(C)C` (configuration not stated) displayed an emission maximum of 394 nm.

The same data set, now with this note: in CCCCCO.
For `COC(=O)C(Cc1ccc2oc(-c3ccc(N(c4ccccc4)c4ccccc4)cc3)nc2c1)NC(=O)OC(C)(C)C` (configuration not stated), the emission maximum came out at 454.75 nm.

Staying with this data set, now noted: in CCCCO.
`COC(=O)C(Cc1ccc2oc(-c3ccc(N(c4ccccc4)c4ccccc4)cc3)nc2c1)NC(=O)OC(C)(C)C` (configuration not stated): the emission maximum is given as 454.5 nm.

The data set is the same for the next values; noted with them: in CCCCOCCCC
Take `COc1nc(Nc2cc3ccc4cccc5ccc(c2)c3c45)nc(OC)n1`: the emission maximum is on record as 393 nm.

The same data set, now with this note: in CCCO.
In the case of `COc1ccc(/C=C/C(=O)c2ccccc2O)cc1OC`, the emission maximum is 495 nm.

The data set is the same for the next values; noted with them: in CCO.
On to `CC1(C)CC(=O)C2=C(C1)Oc1ccc3cc(O)ccc3c1C2c1ccccn1` (configuration not stated), for which the emission maximum is 377 nm.

Turning to `Cc1ccc(C2=C3C=CC=[N+]3[B-](F)(F)n3cccc32)cc1`, the emission maximum came out at 514.5 nm.

`N#CC1=c2cc3c4c(c2Oc2c1cc1c5c2CCCN5CCC1)CCC[N+]=4CCC3` yielded an emission maximum of 700 nm.

`COc1ccc(/C=C/C(=O)c2ccccc2O)cc1OC` had an emission maximum of 500 nm.

For the molecule `O=c1c2cc(F)c(O)cc2n(Cc2ccccc2)c2cc(O)c(F)cc12`, the emission maximum was 431 nm.

For `COC(=O)C(Cc1ccc2oc(-c3ccc(N(c4ccccc4)c4ccccc4)cc3)nc2c1)NC(=O)OC(C)(C)C` (configuration not stated), the emission maximum is given as 475.75 nm.

The data set is the same for the next values; noted with them: in CCOC(C)=O.
Molecule `Cc1ccc(C2=C3C=CC=[N+]3[B-](F)(F)n3cccc32)cc1` showed an emission maximum of 514.5 nm.

Regarding `COC(=O)C(Cc1ccc2oc(-c3ccc(N(c4ccccc4)c4ccccc4)cc3)nc2c1)NC(=O)OC(C)(C)C` (configuration not stated), the emission maximum is 448.75 nm.

The same data set, now with this note: in CN(C)C=O.
The molecule `COc1ccc(/C=C/C(=O)c2ccccc2O)cc1OC` had an emission maximum of 473 nm.

Turning to `COC(=O)C(Cc1ccc2oc(-c3ccc(N(c4ccccc4)c4ccccc4)cc3)nc2c1)NC(=O)OC(C)(C)C` (configuration not stated), the emission maximum is listed as 461.75 nm.

For the origin of these results see the Deep4Chem optical property database.
